Source: patent US12643906B2, “Fused aza-heterocyclic amide compound and use thereof” (CSPC ZHONGQI PHARMACEUTICAL TECHNOLOGY (SHIJIAZHUANG) CO., …, priority 2020, dated 2026)
Where two headings read alike, the source gives them in different places.

Columns and labels:
[1] = target: T1, TRKB (Homo sapiens, UniProt Q16620); experiment: HTRF kinase inhibition assay, TRKB; assay type: biochemical
T1 construct: purchased Bioduro
Experimental: (§1) The compound to be tested with a certain concentration gradient and an enzyme solution were successively added into a plate (kinase buffer (1× kinase buffer (Cisbio, Cat #62EZBFDD), pH 7.5; 5 mM MgCl2, 1 mM DTT) was added into negative control wells), and the compound plate was centrifuged at 1000 rpm for 30 seconds. The plate was sealed and incubated in a Constant Temperature Incubator at 25° C. for 30 min. A substrate solution containing TK-Sub-biotin (Cisbio, Cat #61TKOBL) and ATP (Sigma, Cat #R0441) was prepared, the substrate solution was added into a 384-well plate, and the plate was centrifuged at 1000 rpm for 30 seconds. The plate was sealed and incubated in a Constant Temperature Incubator at 25° C. for 60 min.
(§2) TK antibody and XL665 were diluted, mixed and added into the assay plate, and the plate was centrifuged at 1000 rpm for 30 seconds. The plate was sealed and incubated in a Constant Temperature incubator Incubator at 25° C. for 60 min. The assay plate was placed on an Envision reader for reading.
(§3) Data were fitted in XLFit excel add-in version 5.4.0.8 to obtain IC50 values.

[2] = target: T2, ROS1 (Homo sapiens, UniProt P08922); experiment: Kinase inhibition assay with fluorescein labeled peptide, ROS1; assay type: biochemical
T2 construct: purchased Carna 08-163
Experimental: (§4) Compounds were diluted to a certain concentration in DMSO with 4-fold gradients. The compound with a certain concentration, an enzyme solution and DMSO were added into a 384-well plate, and the plate was incubated at room temperature for 10 min. […] The plate was subjected to reading.

[3] = target: T3, TRKC (Homo sapiens, UniProt Q16288); experiment: HTRF kinase inhibition assay, TRKC; assay type: biochemical
T3 construct: purchased Bioduro
Experimental: as §1
as §2, with “reading. (HTRF 665/615 ratio: signal value at 665 nm/signal value at 615 nm) Inhibition=(rationegative control well−ratiocompound well)/(rationegative control well−ratioenzyme-free control well)×100% 1.3 Data Analysis and Curve Fitting” for “reading.”
as §3

[4] = tested on: Ba/F3 LMNA-NTRK1-G595R model; settings: gavage
Experimental: (§5) The cells in the logarithmic growth phase were collected and re-suspending in serum-free culture medium to make the cell concentration at […] cells/mL. The cell suspension was added with equal volume of Matrigel to make the final cell concentration at 3×10^7-5×10^7 cells/mL. The animal model was established by subcutaneously inoculating 0.1 mL of tumor cell suspension in the axilla of the forelimb of NuNu mice (female, 4-6 weeks, Beijing Vital River Laboratory Animal Technology Co., Ltd.) in an amount of 3×10^6-5×10^6 cells/mouse.
(§6) The maximum and the minimum tumor diameters of the xenografts in nude mice were measured using a vernier caliper, and the tumor volume (TV) was calculated according to the formula: V=½×a×b^2, where a and b represent the maximum and minimum diameters of the tumor mass, respectively. Nude mice with appropriate tumor volume were selected and the mice were evenly divided into 7 groups of 6 mice (100-200 mm^3) by tumor volume using a random number method.
(§7) Tumor diameters were measured twice weekly and tumor volume was calculated. […] (where Ti represents the mean tumor volume of a certain administration group on a certain day; TO represents the mean tumor volume of the administration group at the start of administration, Vi represents the mean tumor volume of the vehicle control group on a certain day (same day as Ti) and V0 represents the mean tumor volume of the vehicle control group at the start of administration); • Tumor inhibition rate: at the end of the test, the animals were executed by removing the cervical vertebrae.

[5] = tested on: Ba/F3 LMNA-NTRK1-G667C model; settings: 100 mg/kg, gavage
Experimental: as §5, §6, §7

[6] = target: T4, TRKA(G667C) (Homo sapiens, UniProt P04629, G667C); experiment: HTRF kinase inhibition assay, TRKA(G667C); assay type: biochemical
T4 construct: purchased signalchem
Experimental: as §1
as §2, with “reading. (HTRF 665/615 ratio: signal value at 665 nm/signal value at 615 nm) Inhibition=(rationegative control well−ratiocompound well)/(rationegative control well−ratioenzyme-free control well)×100% 1.3 Data Analysis and Curve Fitting” for “reading.”
as §3

[7] = target: T5, ALK (Homo sapiens, UniProt Q9UM73); experiment: Kinase inhibition assay with fluorescein labeled peptide, ALK; assay type: biochemical
T5 construct: purchased Carna 08-105
Experimental: as §4

IC50 [1]: 0.986 nM
IC50 [2]: 0.19 nM
IC50 [3]: 0.443 nM
Rate of weight gain (%) ([4]; 50 mg/kg): 10.66%
Rate of weight gain (%) ([4]; 100 mg/kg): 8.32%
Rate of weight gain (%) [5]: 8.16%
IC50 [6]: 0.183 nM
IC50 [7]: 22 nM
Structure (SMILES): O=C(Nc1ccc(N2CCN(C(=O)CO)CC2)cc1)c1cnn2ccc(N3C[C@@H](F)C[C@@H]3c3cc(F)ccc3F)nc12 [Compound 4, 5-((2R,4S)-2-(2,5-difluorophenyl)-4-fluoropyrrolidin-1-yl)-N-(4-(4-(2-hydroxyacetyl)piperazin-1-yl)phenyl)pyrazolo[1,5-a]pyrimidine-3-carboxamide]
Number of animals (Survival/total) ([4]; 50 mg/kg): (6/6)
TGI (%) ([4]; 50 mg/kg): 136.9%
Tumor volume (mm^3) ([4]; 50 mg/kg): 15.7 ± 12.6 mm^3
Tumor weight ([4]; 50 mg/kg): 0.02 ± 0.01 g
Tumor weight inhibition rate (%) ([4]; 50 mg/kg): 96.16%
Number of animals (Survival/total) ([4]; 100 mg/kg): (6/6)
TGI (%) ([4]; 100 mg/kg): 138.0%
Tumor volume (mm^3) ([4]; 100 mg/kg): 11.3 ± 9.7 mm^3
Tumor weight ([4]; 100 mg/kg): 0.02 ± 0.01 g
Tumor weight inhibition rate (%) ([4]; 100 mg/kg): 96.83%
Number of animals (Survival/total) [5]: (6/6)
TGI (%) [5]: 84.0%
Tumor volume (mm^3) [5]: 197.5 ± 85.4 mm^3
Tumor weight [5]: 0.21 ± 0.08 g
Tumor weight inhibition rate (%) [5]: 61.17%
